Test [1] concerns NO production in RAW 264.7 macrophages. Kind of test: NO inhibitory assay (Griess reaction) in LPS-activated macrophages. The class given is cell-based, murine. Conditions: RAW 264.7 macrophages pretreated with creosol 30 minutes, then LPS 1 μg/ml 24 hours; FIG. 1A. How it is done:
RAW 264.7 cells were seeded in 24-well plates at a density of 5×10^5 cells/ml, and then incubated with or without LPS (1 μg/ml) in the absence or presence of tested samples for 24 hours. The effects of creosol on NO production were measured indirectly by the analysis of nitrite levels, using the Griess reaction. The effects of creosol on the expression of inflammatory mediators were analyzed. In the present invention, RAW 264.7 macrophages (5×10^5/ml) were pretreated with creosol for 30 minutes, followed by stimulation with LPS (1 μg/ml) for 24 hours. NO concentration in culture medium was assayed by the Griess reaction.

The subject of test [2] is IL-6 expression in RAW 264.7 macrophages. Briefly: IL-6 ELISA in LPS-activated macrophages. Format: cell-based, murine. Conditions: RAW 264.7 macrophages pretreated with creosol 30 minutes, then LPS 1 μg/ml 24 hours; FIG. 1B. The procedure:
(§1) Cells were seeded in 6-well plates at a density of 5×10^5 cells/ml, and then incubated with or without LPS (1 μug/ml) in the absence or presence of tested samples for 24 hours. The effects of the tested samples on TNF-α, IL-6 and IL-1β production were measured by ELISA according to the manufacturer's protocol. Briefly, 50 μl of biotinylated antibody reagent and 50 μl of supernatant were added to an anti-mouse TNF-α, IL-6 and IL-1β precoated stripwell plate, and incubated at room temperature for 2 hours. After washing the plate three times with the washing buffer, 100 μl of diluted streptavidin-HRP (horseradish peroxidase) concentrate was added to each well and the plate was incubated at room temperature for 30 minutes. The washing process was repeated; then, 100 μl of a premixed tetramethylbenzidine substrate solution was added to each well and developed at room temperature, in the dark, for 30 minutes. Following the addition of 100 μl of stop solution to each well to stop the reaction, the absorbance of the plate was measured by a microplate reader at a 450 nm wavelength. As shown in FIG. 1B and FIG. 1C, RAW 264.7 macrophages (5×10^5/ml) were pretreated with creosol for 30 minutes, followed by stimulating with LPS (1 μg/ml) for 24 hours. IL-6 and TNF-α concentration in culture medium was assayed by ELISA.
(ELISA stands for enzyme-linked immunosorbent assay.)

In test [3] the test system is TNF-α expression in RAW 264.7 macrophages. Briefly: TNF-α ELISA in LPS-activated macrophages. The class given is cell-based, murine. The conditions noted are these: RAW 264.7 macrophages pretreated with creosol 30 minutes, then LPS 1 μg/ml 24 hours; FIG. 1C. The procedure:
as §1

The test system of test [4] is IL-1β secretion in J774A.1 cells. Briefly: IL-1β secretion ELISA in ATP stimulated LPS-primed macrophages (NLRP3 inflammasome activation). The class given is cell-based, mouse. How it is done: Cells were seeded in 6-well plates at a density of 5×10^5 cells/ml, and then incubated with or without LPS (1 μug/ml) in the absence or presence of tested samples for 24 hours. The effects of the tested samples on TNF-α, IL-6 and IL-1β production were measured by ELISA according to the manufacturer's protocol. Briefly, 50 μl of biotinylated antibody reagent and 50 μl of supernatant were added to an anti-mouse TNF-α, IL-6 and IL-1β precoated stripwell plate, and incubated at room temperature for 2 hours. […] Following the addition of 100 μl of stop solution to each well to stop the reaction, the absorbance of the plate was measured by a microplate reader at a 450 nm wavelength.
(§2) J774A.1 cells (1×10^6/ml) were primed with LPS for 5.5 hours, followed by treatment with creosol for 30 minutes, and then stimulated with ATP (5 mM) for an additional 30 minutes. […] Data is expressed as the mean±SE from three separate experiments (wherein *p<0.05). In FIG. 2B, the expression of caspase-1 (p45) and cleaved caspase-1 (p10) were analyzed by Western blot. […] Data is expressed as the mean±SE from three separate experiments (wherein *p<0.05). The expressions of caspase-1 (p45) and cleaved caspase-1 (p10) were analyzed by Western blot, and the result of one of the three separate experiments is shown in FIG. 2D. […] The expressions of NLRP3 inflammasomes and IL-1β precursor were analyzed by Western blot. […]

The subject of test [5] is caspase-1 activation in J774A.1 cells. Kind of test: Caspase-1 activation, Western blot of p10 subunit in ATP stimulated LPS-primed macrophages. Conditions: then ATP 30 minutes. Format: cell-based, mouse. The procedure: (§3) Whole cell lysates were separated by SDS-PAGE and electrotransferred to a PVDF (polyvinylidene fluoride) membrane. The membranes were incubated in a blocking solution—5% nonfat milk in phosphate buffered saline with 0.1% Tween 20—at room temperature for 1 hour. Each membrane was incubated with a specific primary antibody, at room temperature, for 2 hours. After washing the membrane three times in PBS with 0.1% Tween 20, it was incubated with an HRP-conjugated secondary antibody directed against the primary antibody. The membrane was developed by an enhanced chemiluminescence Western blot detection system.
as §2
For orientation: Immunoblotting shows a protein as a band on a membrane.

Test [6] concerns NLRP3 expression in J774A.1 cells. Kind of test: NLRP3 expression, Western blot in LPS-activated macrophages. The class given is cell-based, mouse. The conditions noted are these: J774A.1 cells incubated with creosol 30 minutes, then LPS 6 hours; FIG. 2E. How it is done:
as §3, §2

Test [7] relates to IL-1β precursor expression in J774A.1 cells. Kind of test: IL-1β precursor expression, Western blot in LPS-activated macrophages. Format: cell-based, mouse. Conditions: J774A.1 cells incubated with creosol 30 minutes, then LPS 6 hours; FIG. 2E. The procedure: as §3, §2
Test [8] concerns cultured rat hippocampal neurons. Conditions: cultured rat hippocampal neurons exposed to N-methyl-D-aspartate or H2O2; cited from earlier work.
Test [9] deals with ovariectomy-induced bone loss. Conditions: through inhibiting osteoclastogenesis; cited from earlier work.

SMILES strings stand for the structures.

For `COc1cc(C)ccc1O` [creosol, 2-methoxy-4-methylphenol], in test [1], the “expression of NO” value was “inhibited in creosol-pretreated cells in a dose-dependent manner”. Also, in test [2], the IL-6 expression entry is recorded as “able to inhibit IL-6 expression in a dose-dependent manner”. Moreover, the TNF-α expression entry in test [3] is reported as “not able to inhibit TNF-α expression”. The IL-1β secretion result in test [4] (J774A.1 cells incubated with creosol 30 minutes before LPS-priming, washed out, then ATP 30 minutes, FIG. 2C) is “inhibited IL-1β secretion in a dose-dependent fashion”; in test [4] (LPS-primed J774A.1 cells incubated with creosol 30 minutes, then ATP 5 mM 30 minutes, FIG. 2A), “inhibited IL-1β secretion slightly”. The caspase-1 activation result in test [5] (J774A.1 cells incubated with creosol 30 minutes before LPS-priming, washed out, FIG. 2D) is given as “inhibited by creosol in a dose-dependent fashion”; in test [5] (LPS-primed J774A.1 cells incubated with creosol 30 minutes, FIG. 2B), “inhibited caspase-1 activation slightly”. In addition, the NLRP3 expression entry in test [6] was “inhibited NLRP3 expression slightly”. In [7], the IL-1β precursor expression entry is given as “significantly inhibited the IL-1[…] precursor expression”. For the same compound, the “prevention of cell death of neurons” value in [8] is on record as “able to prevent the cell death”. Besides, the “prevention of ovariectomy-induced bone loss” value in test [9] is “able to prevent ovariectomy-induced bone loss”.

Source of the values: US20150005390A1, “METHOD FOR TREATING INFLAMMATORY DISORDER” (National Defense Medical Center, priority 2013, published 2015).
